Assay results: PMC8333425, “Discovery of a dual Ras and ARF6 inhibitor from a GPCR endocytosis screen” (Nature Communications, 2021)

Experiments:
Test in all cases: KINOMEscan kinase binding assay
[1] = target: T1, 384 kinases from the human genome (Homo sapiens, UniProt O14730); details: kinase RIOK3 (Entrez RIOK3)
T1 construct: purchased Eurofin/DiscoverX
In short: (§1)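 Competition binding (KINOMEscan) across 384 human kinases with compound at 10 µM. Ligand binding was expressed relative to DMSO (100%) as the average of duplicates from one experiment. S(10) selectivity score was derived.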

[2] = target: T2, 384 kinases from the human genome (Homo sapiens, UniProt O15264); details: kinase p38-delta (Entrez MAPK13)
T2 construct: purchased Eurofin/DiscoverX
In short: as §1

[3] = target: T3, 384 kinases from the human genome (Homo sapiens, UniProt O15530); details: kinase PDPK1 (Entrez PDPK1)
T3 construct: purchased Eurofin/DiscoverX
T3 sequence (O15530 whole entry): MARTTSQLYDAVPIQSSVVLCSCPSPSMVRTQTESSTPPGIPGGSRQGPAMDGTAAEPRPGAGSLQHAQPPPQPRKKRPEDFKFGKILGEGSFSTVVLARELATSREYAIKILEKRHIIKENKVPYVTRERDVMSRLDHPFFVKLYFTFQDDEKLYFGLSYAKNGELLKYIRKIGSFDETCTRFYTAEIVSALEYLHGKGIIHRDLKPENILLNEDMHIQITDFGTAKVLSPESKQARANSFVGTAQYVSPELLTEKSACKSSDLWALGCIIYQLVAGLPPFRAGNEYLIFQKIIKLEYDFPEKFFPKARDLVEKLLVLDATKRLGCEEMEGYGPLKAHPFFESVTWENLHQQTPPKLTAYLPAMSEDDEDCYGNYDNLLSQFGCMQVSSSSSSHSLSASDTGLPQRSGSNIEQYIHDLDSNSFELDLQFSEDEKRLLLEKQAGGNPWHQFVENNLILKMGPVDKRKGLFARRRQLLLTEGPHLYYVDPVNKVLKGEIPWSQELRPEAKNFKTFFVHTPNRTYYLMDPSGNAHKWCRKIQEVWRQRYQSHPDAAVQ
In short: as §1

[4] = target: T4, 384 kinases from the human genome (Homo sapiens, UniProt O75716); details: kinase STK16 (Entrez STK16)
T4 construct: purchased Eurofin/DiscoverX
T4 sequence (O75716 whole entry): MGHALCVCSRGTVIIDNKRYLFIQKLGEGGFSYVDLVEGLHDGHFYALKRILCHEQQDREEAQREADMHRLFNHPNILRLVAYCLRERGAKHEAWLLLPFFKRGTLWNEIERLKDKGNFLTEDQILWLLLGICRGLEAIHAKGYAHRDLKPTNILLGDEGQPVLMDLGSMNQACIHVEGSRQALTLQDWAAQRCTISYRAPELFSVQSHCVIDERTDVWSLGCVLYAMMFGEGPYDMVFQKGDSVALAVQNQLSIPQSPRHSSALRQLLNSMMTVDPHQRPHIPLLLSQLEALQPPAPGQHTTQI
In short: as §1

[5] = target: T5, 384 kinases from the human genome (Homo sapiens, UniProt P09769); details: kinase FGR (Entrez FGR)
T5 construct: purchased Eurofin/DiscoverX
T5 sequence (P09769 whole entry): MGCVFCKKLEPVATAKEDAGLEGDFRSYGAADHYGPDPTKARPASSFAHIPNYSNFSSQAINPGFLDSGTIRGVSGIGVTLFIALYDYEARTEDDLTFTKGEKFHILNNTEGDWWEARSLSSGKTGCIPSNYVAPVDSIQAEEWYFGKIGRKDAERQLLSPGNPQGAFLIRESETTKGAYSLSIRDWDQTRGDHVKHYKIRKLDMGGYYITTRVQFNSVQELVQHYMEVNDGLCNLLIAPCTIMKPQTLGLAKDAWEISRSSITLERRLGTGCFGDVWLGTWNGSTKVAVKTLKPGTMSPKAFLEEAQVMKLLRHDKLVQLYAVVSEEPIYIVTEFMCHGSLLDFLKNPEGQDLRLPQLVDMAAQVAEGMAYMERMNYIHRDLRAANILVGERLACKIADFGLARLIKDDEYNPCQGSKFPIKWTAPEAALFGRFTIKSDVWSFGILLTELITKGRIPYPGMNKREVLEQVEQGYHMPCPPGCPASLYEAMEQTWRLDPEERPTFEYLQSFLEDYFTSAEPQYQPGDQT
In short: as §1

[6] = target: T6, 384 kinases from the human genome (Homo sapiens, UniProt P19784); details: kinase CSNK2A2 (Entrez CSNK2A2)
T6 construct: purchased Eurofin/DiscoverX
T6 sequence (P19784 whole entry): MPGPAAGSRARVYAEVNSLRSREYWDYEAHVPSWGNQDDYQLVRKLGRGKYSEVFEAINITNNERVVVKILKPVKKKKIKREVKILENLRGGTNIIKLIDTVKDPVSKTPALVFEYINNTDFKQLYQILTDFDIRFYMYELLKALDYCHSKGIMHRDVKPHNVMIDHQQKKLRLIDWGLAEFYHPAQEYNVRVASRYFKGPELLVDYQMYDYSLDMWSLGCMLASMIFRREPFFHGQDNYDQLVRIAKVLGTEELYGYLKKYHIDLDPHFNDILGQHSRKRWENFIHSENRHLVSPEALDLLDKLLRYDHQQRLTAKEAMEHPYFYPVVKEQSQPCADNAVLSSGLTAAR
In short: as §1

[7] = target: T7, 384 kinases from the human genome (Homo sapiens, UniProt P29320); details: kinase EPHA3 (Entrez EPHA3)
T7 construct: purchased Eurofin/DiscoverX
In short: as §1

[8] = target: T8, 384 kinases from the human genome (Homo sapiens, UniProt P36894); details: kinase BMPR1A (Entrez BMPR1A)
T8 construct: purchased Eurofin/DiscoverX
T8 sequence (P36894 24-532): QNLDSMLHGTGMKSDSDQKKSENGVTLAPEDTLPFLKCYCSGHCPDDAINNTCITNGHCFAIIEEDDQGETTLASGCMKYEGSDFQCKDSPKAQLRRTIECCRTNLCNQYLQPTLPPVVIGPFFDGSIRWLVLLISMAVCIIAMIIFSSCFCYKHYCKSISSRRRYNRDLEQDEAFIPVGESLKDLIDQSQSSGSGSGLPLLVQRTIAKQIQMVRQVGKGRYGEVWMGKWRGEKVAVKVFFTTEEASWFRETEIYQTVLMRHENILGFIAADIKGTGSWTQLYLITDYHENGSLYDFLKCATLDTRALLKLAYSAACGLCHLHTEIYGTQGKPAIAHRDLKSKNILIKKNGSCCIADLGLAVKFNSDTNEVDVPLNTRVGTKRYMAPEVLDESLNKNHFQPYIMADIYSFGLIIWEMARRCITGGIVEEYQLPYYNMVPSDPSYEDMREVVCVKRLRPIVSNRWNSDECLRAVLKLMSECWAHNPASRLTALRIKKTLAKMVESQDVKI
In short: as §1

[9] = target: T9, 384 kinases from the human genome (Homo sapiens, UniProt P42345); details: kinase MTOR (Entrez MTOR)
T9 construct: purchased Eurofin/DiscoverX
In short: as §1

[10] = target: T10, 384 kinases from the human genome (Homo sapiens, UniProt P49841); details: kinase GSK3B (Entrez GSK3B)
T10 construct: purchased Eurofin/DiscoverX
In short: as §1

[11] = target: T11, 384 kinases from the human genome (Homo sapiens, UniProt P53671); details: kinase LIMK2 (Entrez LIMK2)
T11 construct: purchased Eurofin/DiscoverX
In short: as §1

[12] = target: T12, 384 kinases from the human genome (Homo sapiens, UniProt Q06187); details: kinase BTK (Entrez BTK)
T12 construct: purchased Eurofin/DiscoverX
In short: as §1

[13] = target: T13, 384 kinases from the human genome (Homo sapiens, UniProt Q13523); details: kinase PRP4 (Entrez PRPF4B)
T13 construct: purchased Eurofin/DiscoverX
In short: as §1

[14] = target: T14, 384 kinases from the human genome (Homo sapiens, UniProt Q13627); details: kinase DYRK1A (Entrez DYRK1A)
T14 construct: purchased Eurofin/DiscoverX
In short: as §1

[15] = target: T15, 384 kinases from the human genome (Homo sapiens, UniProt Q16512); details: kinase PKN1 (Entrez PKN1)
T15 construct: purchased Eurofin/DiscoverX
T15 sequence (Q16512 whole entry): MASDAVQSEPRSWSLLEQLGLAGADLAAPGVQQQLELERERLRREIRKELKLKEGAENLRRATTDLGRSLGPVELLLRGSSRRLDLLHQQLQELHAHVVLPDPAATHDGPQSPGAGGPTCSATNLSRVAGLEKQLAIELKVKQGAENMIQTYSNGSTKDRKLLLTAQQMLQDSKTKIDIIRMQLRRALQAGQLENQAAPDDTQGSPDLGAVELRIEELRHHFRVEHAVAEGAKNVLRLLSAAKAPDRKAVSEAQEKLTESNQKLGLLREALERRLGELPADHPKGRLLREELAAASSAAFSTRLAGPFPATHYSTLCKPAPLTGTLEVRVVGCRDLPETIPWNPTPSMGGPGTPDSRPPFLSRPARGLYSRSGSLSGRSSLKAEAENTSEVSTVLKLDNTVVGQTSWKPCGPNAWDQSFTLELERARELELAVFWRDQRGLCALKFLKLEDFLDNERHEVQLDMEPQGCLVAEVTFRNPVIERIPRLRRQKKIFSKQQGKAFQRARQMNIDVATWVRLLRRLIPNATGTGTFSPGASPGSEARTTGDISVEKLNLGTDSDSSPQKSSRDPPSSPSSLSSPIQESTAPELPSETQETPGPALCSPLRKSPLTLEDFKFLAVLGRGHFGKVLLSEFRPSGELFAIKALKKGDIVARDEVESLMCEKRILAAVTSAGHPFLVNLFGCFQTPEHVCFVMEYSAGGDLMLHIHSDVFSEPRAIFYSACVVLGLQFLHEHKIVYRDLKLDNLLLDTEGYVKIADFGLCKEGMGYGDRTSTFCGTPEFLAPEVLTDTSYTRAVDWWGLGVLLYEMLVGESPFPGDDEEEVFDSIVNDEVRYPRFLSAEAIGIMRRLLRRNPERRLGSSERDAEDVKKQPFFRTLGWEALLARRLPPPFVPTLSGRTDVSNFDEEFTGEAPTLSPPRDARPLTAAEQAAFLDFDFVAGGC
In short: as §1

[16] = target: T16, 384 kinases from the human genome (Homo sapiens, UniProt Q86Z02); details: kinase HIPK1 (Entrez HIPK1)
T16 construct: purchased Eurofin/DiscoverX
In short: as §1

[17] = target: T17, 384 kinases from the human genome (Homo sapiens, UniProt Q8IYT8); details: kinase ULK2 (Entrez ULK2)
T17 construct: purchased Eurofin/DiscoverX
T17 sequence (Q8IYT8 whole entry): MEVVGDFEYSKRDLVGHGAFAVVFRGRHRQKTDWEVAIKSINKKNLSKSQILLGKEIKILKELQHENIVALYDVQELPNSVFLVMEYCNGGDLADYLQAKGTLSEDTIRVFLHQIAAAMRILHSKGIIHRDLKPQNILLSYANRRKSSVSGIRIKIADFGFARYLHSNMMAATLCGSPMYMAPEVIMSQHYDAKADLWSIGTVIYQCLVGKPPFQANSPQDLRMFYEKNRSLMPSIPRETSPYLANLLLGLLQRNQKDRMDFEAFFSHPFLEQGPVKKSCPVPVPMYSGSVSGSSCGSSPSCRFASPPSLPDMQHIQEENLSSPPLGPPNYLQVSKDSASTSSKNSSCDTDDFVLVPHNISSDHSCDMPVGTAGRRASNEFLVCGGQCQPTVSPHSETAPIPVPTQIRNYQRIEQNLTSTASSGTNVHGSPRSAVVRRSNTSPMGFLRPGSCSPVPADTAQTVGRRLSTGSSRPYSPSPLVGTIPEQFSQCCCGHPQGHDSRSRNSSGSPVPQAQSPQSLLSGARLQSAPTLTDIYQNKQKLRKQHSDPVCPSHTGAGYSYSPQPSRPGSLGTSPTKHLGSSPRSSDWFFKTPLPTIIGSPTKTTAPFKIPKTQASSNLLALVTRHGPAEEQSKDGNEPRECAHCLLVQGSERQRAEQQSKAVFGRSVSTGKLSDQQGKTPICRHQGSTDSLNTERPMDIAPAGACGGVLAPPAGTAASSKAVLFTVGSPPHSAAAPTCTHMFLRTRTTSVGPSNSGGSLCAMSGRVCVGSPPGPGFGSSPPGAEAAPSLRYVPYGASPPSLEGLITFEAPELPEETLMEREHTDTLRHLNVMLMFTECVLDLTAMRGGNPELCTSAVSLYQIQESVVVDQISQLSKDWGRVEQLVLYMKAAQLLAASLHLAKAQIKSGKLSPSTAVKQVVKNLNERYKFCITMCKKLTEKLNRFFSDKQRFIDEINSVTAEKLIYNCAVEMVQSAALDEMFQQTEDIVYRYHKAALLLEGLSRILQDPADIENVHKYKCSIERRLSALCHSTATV
In short: as §1

[18] = target: T18, 384 kinases from the human genome (Homo sapiens, UniProt Q8TDR2); details: kinase STK35 (Entrez STK35)
T18 construct: purchased Eurofin/DiscoverX
In short: as §1

[19] = target: T19, 384 kinases from the human genome (Homo sapiens, UniProt Q8WXR4); details: kinase MYO3B (Entrez MYO3B)
T19 construct: purchased Eurofin/DiscoverX
In short: as §1

[20] = target: T20, 384 kinases from the human genome (Homo sapiens, UniProt Q92918); details: kinase HPK1 (Entrez MAP4K1)
T20 construct: purchased Eurofin/DiscoverX
In short: as §1

[21] = target: T21, 384 kinases from the human genome (Homo sapiens, UniProt Q96PN8); details: kinase TSSK3 (Entrez TSSK3)
T21 construct: purchased Eurofin/DiscoverX
In short: as §1

[22] = target: T22, 384 kinases from the human genome (Homo sapiens, UniProt Q9BYP7); details: kinase WNK3 (Entrez WNK3)
T22 construct: purchased Eurofin/DiscoverX
In short: as §1

[23] = target: T23, 384 kinases from the human genome (Homo sapiens, UniProt Q9P286); details: kinase PAK7 (Entrez PAK7)
T23 construct: purchased Eurofin/DiscoverX
In short: as §1

[24] = target: T24, 384 kinases from the human genome (Homo sapiens, UniProt Q9UHD2); details: kinase TBK1 (Entrez TBK1)
T24 construct: purchased Eurofin/DiscoverX
T24 sequence (Q9UHD2 whole entry): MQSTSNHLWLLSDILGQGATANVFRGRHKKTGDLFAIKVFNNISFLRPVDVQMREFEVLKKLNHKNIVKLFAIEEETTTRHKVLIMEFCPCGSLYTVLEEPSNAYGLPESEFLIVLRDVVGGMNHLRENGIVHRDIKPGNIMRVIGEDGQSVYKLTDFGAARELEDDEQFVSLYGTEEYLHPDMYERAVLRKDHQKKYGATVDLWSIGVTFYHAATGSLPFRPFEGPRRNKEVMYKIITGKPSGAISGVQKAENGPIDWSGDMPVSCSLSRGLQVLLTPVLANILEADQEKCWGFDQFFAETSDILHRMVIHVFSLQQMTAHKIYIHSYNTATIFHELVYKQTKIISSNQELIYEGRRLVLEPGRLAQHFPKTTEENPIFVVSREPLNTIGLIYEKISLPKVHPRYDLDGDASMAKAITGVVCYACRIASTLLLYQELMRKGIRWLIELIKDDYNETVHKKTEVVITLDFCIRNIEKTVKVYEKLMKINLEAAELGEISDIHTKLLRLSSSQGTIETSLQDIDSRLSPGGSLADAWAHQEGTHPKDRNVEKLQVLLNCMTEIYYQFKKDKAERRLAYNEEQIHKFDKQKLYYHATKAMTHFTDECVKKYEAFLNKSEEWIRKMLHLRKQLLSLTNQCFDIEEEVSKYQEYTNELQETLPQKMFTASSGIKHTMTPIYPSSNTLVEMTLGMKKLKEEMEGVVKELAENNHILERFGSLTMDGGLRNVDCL
In short: as §1

[25] = target: T25, 384 kinases from the human genome (Homo sapiens, UniProt Q9UPZ9); details: kinase ICK (Entrez ICK)
T25 construct: purchased Eurofin/DiscoverX
In short: as §1

[26] = test system: 384 kinases from the human genome; details: 10 µM of 21
In short: as §1

CC(C)C(=O)N1CCN(c2ccc(NC(=O)c3cc4ccccc4o3)cc2Cl)CC1 [Compound 21]
Percent Control [1]: 100% | Percent Control [2]: 88% | Percent Control [3]: 97% | Percent Control [4]: 100% | Percent Control [5]: 73% | Percent Control [6]: 92% | Percent Control [7]: 91% | Percent Control [8]: 79% | Percent Control [9]: 65% | Percent Control [10]: 99% | Percent Control [11]: 90% | Percent Control [12]: 94% | Percent Control [13]: 100% | Percent Control [14]: 98% | Percent Control [15]: 94% | Percent Control [16]: 87% | Percent Control [17]: 95% | Percent Control [18]: 100% | Percent Control [19]: 58% | Percent Control [20]: 75% | Percent Control [21]: 100% | Percent Control [22]: 90% | Percent Control [23]: 85% | Percent Control [24]: 100% | Percent Control [25]: 81% | binding to ERK subtypes [26]: failed to bind | binding to MEK subtypes [26]: failed to bind | binding to PI3K subtypes [26]: failed to bind | binding to different Akt subtypes [26]: failed to bind
